Experimental data from US8314234B2, “Bicyclic pyrimidine kinase inhibitors” (Janssen Pharmaceutica N.V., priority 2006, dated 2012).

Experiments:
CDK2 = molecular target: T1, CDK2 (Homo sapiens, UniProt P24941); test: CDK-2 screening assay; assay type: biochemical
T1 construct: purchased Upstate Biotech, Lake Placid, N.Y
Procedure: (§1) 70 μL of the kinase reaction mixture was dispensed into the well of a streptavidin coated FlashPlate™ (Cat. #SMP103, NEN, Boston, Mass.).
(§2) Test compound stock in 100% DMSO (1 μL) was added to the wells resulting in a final concentration of 1% DMSO in the reaction with a 100 μL final reaction volume. Each enzyme was diluted in 50 mM Tris-HCl pH=8.0, 0.1% BSA and 30 μL was added to each well to initiate the reaction. The reaction was incubated for one hour at 30° C. At the end of the 1 hr incubation, the reaction was terminated by aspirating the mixture from the plate and washing the wells twice with PBS containing 100 mM EDTA. The biotinylated peptide substrate became immobilized on the Flashplate and the incorporation of ^33P-γ-ATP was measured by reading the plate on a scintillation counter. Inhibition of the enzymatic activity was measured by observing a reduced amount of ^33P-γ-ATP incorporated into the immobilized peptide.
The CDK2 enzyme in complex with cyclin A is commercially available (Upstate Biotech, Lake Placid, N.Y.).
(§3) A maximum and minimum signal for the assay was determined on each plate. The percent inhibition of a test compound was calculated according to the formula: […]
(§4) The term “ND” means “not determined.”

A375 malignant melanoma = test: Cell Proliferation Inhibition Assay (14C-thymidine incorporation), A375; assay type: cell-based; conditions: Homo sapiens, A-375
Text: (§5) The ability of a test compound to inhibit unregulated cell proliferation may be determined by measuring incorporation of ^14C-labelled thymidine into newly synthesized DNA within cell lines derived from carcinomas originating from several tissues. Accordingly, the anti-proliferative effect of a compound on cells with a variety of phenotypes may be determined.
(§6) Carcinoma cell lines include those such as HeLa cervical adenocarcinoma (American Type Culture Collection (ATCC), Virginia, Cat. #CCL-2), A375 malignant melanoma (ATCC CRL-1619), SK-OV-3 ovarian adenocarcinoma (ATCC HTB-77), HCT-116 colon carcinoma (CCL-247), PC-3 prostate adenocarcinoma (ATCC CRL-1435), and MDA-MB-231 (Xenogen Corp.)
(§7) The carcinoma cells are trypsinized and counted. The cells (3000-8000 count) are added to each well of a 96-well CytoStar tissue culture treated scintillating microplate (Amersham #RPNQ0160) in complete medium (100 μL) and the plate is then incubated in complete medium for 24 hrs at 37° C. in an inert atmosphere containing 5% CO2. Test compound (1 μL) in 100% DMSO is added to the plate test-wells with DMSO only added to control-wells. The plate is incubated in complete medium for a second 24 hr period at 37° C. in an atmosphere containing 5% CO2.
(§8) An aliquot of a solution of Methyl ^14C-thymidine (56 mC/mmol) (NEN #NEC568 or Amersham #CFA532) and complete medium (20 uL to provide 0.2 μCi/well) is then added to each well and the plate is incubated for a third 24 hr period at 37° C. in an atmosphere containing 5% CO2. The plate contents are then discarded, the plate is washed twice with PBS (200 μL) and then PBS (200 μL) is added to each well. The plate is sealed and the degree of methyl ^14C-thymidine incorporation is quantified on a Packard Top Count.

HCT-116 colon carcinoma = test: Cell Proliferation Inhibition Assay (14C-thymidine incorporation), HCT-116; assay type: cell-based; conditions: Homo sapiens
Text: as §5, §6, §7, §8

CDK1 = molecular target: T2, CDK1 (Homo sapiens, UniProt P06493); test: CDK-1 screening assay; assay type: biochemical
T2 construct: purchased New England Biolabs, Beverly, Mass; 6020; host or cells: insect cells
Procedure: as §1, §2, §3, §4

VEGFR2 = VEGFR2 (Rattus norvegicus, UniProt O08775); test: VEGFR2 screening assay; assay type: biochemical
Procedure: A kinase reaction mixture was prepared containing 50 mM Tris-HCl pH=8, 10 mM MgCl2, 0.1 mM […], 1 mM DTT, 10 μM ATP, 0.025 μM biotinylated histone-H1 peptide substrate and 0.2 μCuries per well ^33P-γ-ATP (2000-3000 Ci/mmol). 70 μL of the kinase reaction mixture was dispensed into the well of a streptavidin coated FlashPlate™ (Cat. #SMP103, NEN, Boston, Mass.).
as §2
The VEGF-R2 enzyme is a fusion protein containing a polyhistidine tag at the N terminus followed by amino acids 786 to 1343 of the rat VEGF-R2 kinase domain (Accession number U93306). The assay used 150 ng of the N-terminal biotinylated peptide biotin-[…]-amide SEQ ID NO: 2) (VEGF-R2) per well.
as §3
For a series of test concentrations, the IC50 was derived by graphing percent inhibition against the log of the concentrations tested for a given compound with results shown in Table 2. For those compounds without an IC50, the inhibition values in percent are shown at a test concentration of 2 μM. The term “ND” means “not determined.”

[1] = system: HeLa cervical adenocarcinoma; test: Cell Proliferation Inhibition Assay (14C-thymidine incorporation), HeLa; assay type: cell-based; conditions: Homo sapiens
Text: as §5, §6, §7, §8

EGFR = molecular target: T3, EGFR (Homo sapiens, UniProt P00533); test: EGFR Kinase Assay; assay type: biochemical; conditions: test concentration of 2 μM
T3 construct: intracellular portion of EGFR started at nucleotide 2189 (corresponding to amino acid 667) and ended at the termination codon; made in house; host or cells: Sf9 insect cells (baculovirus)
Text: The EGFR kinase used was a fusion of Glutathione-S-Transferase (GST) and a PCR amplified intracellular portion of EGFR (NM_005228). The intracellular portion of EGFR started at nucleotide 2189 (corresponding to amino acid 667) and ended at the termination codon. The portion was PCR amplified with primers that added the lambda attB sequences to each end, recombined into an entry vector, then into a GST destination vector (as described in Gateway Technologies Manual by Invitrogen Corporation, Carlsbad, Calif.).
The destination vector was recombined in the DH10BAC strain of bacteria to produce a bacmid. The bacmid was transfected into Sf9 cells and the supernatant containing the baculovirus was collected. The GSTEGFR protein was purified using large cultures of Sf9 cells infected with stock virus. After an appropriate period of time, the cells were collected and lysed. The GSTEGFR was then purified from the lysate on Glutathione-Sepharose columns (as described by Amersham Biosciences, Buckinghamshire, United Kingdom).
The EGFR substrate was prepared by biotinylating polyGluTyr (128 mg) (Sigma, St. Louis, Mo.) in a 1×PBS buffer incubated together with a 12-fold molar excess of Sulfo-NHS-LC-Biotin on ice for at least 2 hrs. The free biotin was separated from the biotinylated polyGluTyr on a gel filtration column.
A mixture of a 10× kinase buffer (500 mM Tris at pH 8.0, 100 mM Magnesium Chloride and 1 mM Sodium Vanadate), DTT (1 mM final from 500 mM stock), ATP (5 μM final from 10 mM stock), biotinylated polyGluTyr (10 μg/μL stock), γ-^33P ATP (10 μCi/μL stock) and water was added to each well (90 μL/well) of a Streptavidin Flashplate (Perkin Elmer, Wellesley, Mass.).
Test compound in 100% DMSO (2 μL) was added to the appropriate wells. Diluted GSTEGFR (1:300 dilution in 50 mM Tris at pH 8.0 and 0.1% bovine serum albumin) (10 μL) was added to the wells to initiate the reactions.
The plates were incubated at 30° C. for 1 hr with shaking. The reacted contents were removed and the plates were sequentially washed three times with a 1×PBS stop buffer (300 μL without Magnesium and Calcium) and 100 mM EDTA. After the final wash, the same stop buffer (200 μL) was added to the wells. The plates were then sealed and read on the TopCount scintillation counter.
Test compounds were assayed in triplicate at 16 concentrations at half-log dilutions starting at 200 uM. A maximum and minimum signal for the assay was determined on each plate. The percent inhibition of a test compound was calculated according to the formula
For a series of test concentrations, the IC50 was derived by graphing percent inhibition against the log of the concentrations tested for a given compound. The percent inhibition results are shown in Table 1 at a test concentration of 2 μM. For those compounds with an IC50, the IC50 value is shown in parentheses.

T3 sequence (P00533 669-1210 limits assumed): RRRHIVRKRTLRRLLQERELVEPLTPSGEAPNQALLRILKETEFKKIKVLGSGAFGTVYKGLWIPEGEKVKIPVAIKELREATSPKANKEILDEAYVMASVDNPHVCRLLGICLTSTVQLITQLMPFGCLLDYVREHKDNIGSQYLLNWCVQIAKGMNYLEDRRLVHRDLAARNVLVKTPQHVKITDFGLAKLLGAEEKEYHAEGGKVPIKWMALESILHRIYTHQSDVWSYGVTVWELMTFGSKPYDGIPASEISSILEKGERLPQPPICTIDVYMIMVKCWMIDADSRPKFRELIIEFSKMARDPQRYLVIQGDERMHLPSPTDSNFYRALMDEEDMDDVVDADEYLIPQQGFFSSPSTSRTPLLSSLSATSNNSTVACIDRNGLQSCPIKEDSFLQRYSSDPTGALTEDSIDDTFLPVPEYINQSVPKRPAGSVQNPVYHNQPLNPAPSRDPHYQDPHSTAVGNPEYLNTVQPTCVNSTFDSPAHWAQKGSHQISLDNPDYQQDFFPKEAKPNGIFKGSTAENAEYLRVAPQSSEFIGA
VEGFR2, sequence (O08775 786-1343): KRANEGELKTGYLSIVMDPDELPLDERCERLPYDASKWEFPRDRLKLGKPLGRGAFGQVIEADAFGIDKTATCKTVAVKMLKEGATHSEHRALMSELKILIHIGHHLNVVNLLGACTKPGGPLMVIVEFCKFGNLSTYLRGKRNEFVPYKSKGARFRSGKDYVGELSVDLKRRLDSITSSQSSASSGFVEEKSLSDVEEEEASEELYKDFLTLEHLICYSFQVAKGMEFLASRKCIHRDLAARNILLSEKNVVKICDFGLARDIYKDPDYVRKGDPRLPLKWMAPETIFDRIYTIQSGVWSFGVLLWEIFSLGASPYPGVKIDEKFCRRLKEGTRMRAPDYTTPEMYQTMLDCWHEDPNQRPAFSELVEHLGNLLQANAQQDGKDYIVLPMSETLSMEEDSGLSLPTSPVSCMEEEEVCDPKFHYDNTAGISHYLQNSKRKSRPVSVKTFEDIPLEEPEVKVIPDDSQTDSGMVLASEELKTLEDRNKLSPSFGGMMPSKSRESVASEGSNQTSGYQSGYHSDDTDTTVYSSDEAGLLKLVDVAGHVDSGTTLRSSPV
T2 sequence (P06493 whole entry): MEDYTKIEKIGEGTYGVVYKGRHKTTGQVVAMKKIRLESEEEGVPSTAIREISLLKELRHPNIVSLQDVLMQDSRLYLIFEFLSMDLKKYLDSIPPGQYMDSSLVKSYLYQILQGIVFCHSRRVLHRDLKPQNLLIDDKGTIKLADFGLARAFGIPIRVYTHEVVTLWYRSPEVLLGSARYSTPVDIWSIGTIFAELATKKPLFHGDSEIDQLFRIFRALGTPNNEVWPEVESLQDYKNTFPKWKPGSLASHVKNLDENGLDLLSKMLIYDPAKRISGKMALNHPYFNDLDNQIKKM
T2 sequence (P14635 whole entry partner): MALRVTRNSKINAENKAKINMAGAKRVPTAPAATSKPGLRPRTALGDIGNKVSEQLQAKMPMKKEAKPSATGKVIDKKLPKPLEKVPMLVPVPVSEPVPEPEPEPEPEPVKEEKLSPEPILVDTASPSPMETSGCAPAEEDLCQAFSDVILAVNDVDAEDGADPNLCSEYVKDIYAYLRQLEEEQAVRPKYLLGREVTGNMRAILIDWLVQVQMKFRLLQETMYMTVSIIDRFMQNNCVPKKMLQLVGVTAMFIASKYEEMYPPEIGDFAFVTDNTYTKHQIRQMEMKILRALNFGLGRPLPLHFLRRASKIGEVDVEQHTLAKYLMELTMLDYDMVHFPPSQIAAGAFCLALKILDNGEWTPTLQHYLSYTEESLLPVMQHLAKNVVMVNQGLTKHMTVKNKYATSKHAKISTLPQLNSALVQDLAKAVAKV

IC50 (CDK2) [µM] | IC50 (A375 malignant melanoma) [µM] | IC50 (HCT-116 colon carcinoma) [µM] | IC50 (CDK1) [µM] | IC50 (VEGFR2) [µM] | IC50 [1] [µM] | inhibition at 2 µM (EGFR) [%] | SMILES
4.4 | 100 | 100 | > 100 | 23.1 | 25 | 26 | O=S(=O)(NCCO)c1ccc(Nc2nc(Nc3ccccc3)c3cnoc3n2)cc1 [Cpd 20, N-(2-hydroxy-ethyl)-4-(4-phenylamino-isoxazolo[5,4-d]pyrimidin-6-ylamino)-benzenesulfonamide]
0.533 | 100 | 100 | 1.87 | 13.2 | 100 | 53 | CC(=O)n1ncc2c(Nc3ccc(S(=O)(=O)NCCO)cc3)nc(Nc3ccc(S(=O)(=O)NCCO)cc3)nc21 [Cpd 21, 1-acetyl-N^4,N^6-bis-{4-[(2-hydroxy-ethyl)-amino-sulfonyl]-phenyl}-1H-pyrazolo[3,4-d]pyrimidine-4,6-diamine]
